One data set concerns the target ERβ (Homo sapiens, UniProt Q92731). Kind of data set: Estrogen receptor affinity in a cell-free assay (ERβ). The note with it: 1000-fold excess relative to E2; recombinant human ERβ. Type of data set: binding. How it is done: The binding affinity of selected compounds to ERα and ERβ was determined according to the recommendations of the US Environmental Protection Agency (EPA) by their Endocrine Disruptor Screening Program (EDSP)[24] using recombinant human proteins.
The potential inhibitors were dissolved in DMSO (5% final concentration). […] After incubation, ligand-receptor complexes were selectively bound to hydroxyapatite (83.5 g/LinTE-buffer). The bound complex was washed three times and resuspended in ethanol. For radiodetection, scintillator cocktail (Quickszint 212, Zinsser Analytic, Frankfurt) was added and samples were measured in a liquid scintillation counter (1450 LSC & Luminescence Counter, Perkin Elmer).
After the assay was established and validated, a modification was made to increase throughput.

For a further data set, the target named is T1, m17β-HSD2 (Mus musculus, UniProt P51658).
T1 construct: The microsomal fraction (m17β-HSD2) was obtained from mouse liver as described for h17β-HSD2; tissue Pharmacelsus GmbH (mouse livers); host or cells: mouse liver, microsomal fraction
T1 sequence (P51658 1-381): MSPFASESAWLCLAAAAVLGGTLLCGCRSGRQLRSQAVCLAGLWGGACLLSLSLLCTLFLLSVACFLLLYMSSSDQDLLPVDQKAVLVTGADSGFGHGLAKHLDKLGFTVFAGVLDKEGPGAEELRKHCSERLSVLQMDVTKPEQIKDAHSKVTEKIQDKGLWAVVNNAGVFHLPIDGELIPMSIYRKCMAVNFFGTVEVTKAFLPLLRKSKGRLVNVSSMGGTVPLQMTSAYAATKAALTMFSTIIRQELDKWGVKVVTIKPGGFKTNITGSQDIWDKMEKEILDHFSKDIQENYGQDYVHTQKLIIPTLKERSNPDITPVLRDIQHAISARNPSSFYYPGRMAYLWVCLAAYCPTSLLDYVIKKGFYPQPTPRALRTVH
Kind of data set: Inhibition of m17β-HSD2 in cell-free assay. Type of data set: biochemical. The method, boiled down: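 Mouse liver microsomal enzyme incubated with tritiated substrate, NAD+ [1500 μM] and inhibitor at 37 °C in 50 mM phosphate buffer with 20% glycerol, 1 mM EDTA, 1% DMSO final. Stopped after 20 min with HgCl2, steroids ether-extracted and quantified by HPLC radioflow detection; at least two independent experiments.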

Data set [1] deals with T2, h17β-HSD2 (Homo sapiens, UniProt P37059).
T2 sequence (P37059 1-387): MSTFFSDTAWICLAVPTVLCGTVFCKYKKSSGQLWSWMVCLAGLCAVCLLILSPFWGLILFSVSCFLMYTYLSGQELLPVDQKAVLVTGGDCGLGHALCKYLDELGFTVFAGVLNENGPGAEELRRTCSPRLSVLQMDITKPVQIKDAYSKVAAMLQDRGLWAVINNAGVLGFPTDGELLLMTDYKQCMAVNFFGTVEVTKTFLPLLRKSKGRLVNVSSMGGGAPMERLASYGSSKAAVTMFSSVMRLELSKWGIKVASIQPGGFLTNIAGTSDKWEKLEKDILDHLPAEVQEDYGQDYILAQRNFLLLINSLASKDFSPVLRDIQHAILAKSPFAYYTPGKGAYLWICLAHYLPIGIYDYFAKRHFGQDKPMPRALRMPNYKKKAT
Kind of data set: Inhibition of h17β-HSD2 in cell-free assay. The note with it: for s.f. (selectivity factor) = IC50(17β-HSD1)/IC50(17β-HSD2): human enzymes, cell-free. Type of data set: biochemical. Further details: from tissue; host or cells: human placenta, microsomal fraction.

The target in data set [2] is T2, h17β-HSD2. Kind of data set: Inhibition of h17β-HSD2 in a cellular assay (MDA-MB-231). Type of data set: cell-based. Particulars: MDA-MB-231 cell line, substrate E2 [200 nM], 6 h; for inhibition at 0.25 µM: MDA-MB-231, 250 nM, read-out: % inh HSD2 at 250 nM; for inhibition at 1.25 µM: MDA-MB-231, 1250 nM, read-out: % inh HSD2 at 1250 nM. The method, then:
Cellular h17β-HSD2 inhibitory activity is measured using the breast cancer cell-line MDA-MB-231[32] (17β-HSD1 activity negligible). [^3H]-E2 (200 nM) is taken as substrate and is incubated with the inhibitor for 6 h at 37°C. After ether extraction, substrate and product are separated by HPLC and detected with a radioflow detector. Potency is evaluated as percentage of inhibition (inhibitor concentrations used: 1250 nM and 250 nM).

Data set [3] is described as follows: Metabolic stability in a cell-free assay (liver S9 fraction). Particulars: human liver S9 fraction 1 mg/ml, NADPH regenerating system, UDPGA, PAPS, 37°C, inhibitor 1 μM; for half-life at 1 μM: pooled liver S9 fraction, read-out: Inhibitor t1/2. Type of data set: in vitro ADME. How it is done:
Compounds 7a, 8a, 16a, 19a, 22a, 27a and 27 were tested according to established method[33–35]For evaluation of phase I and II metabolic stability 1 μM compound was incubated with 1 mg/ml pooled mammalian liver S9 fraction (BD Gentest), 2 mM NADPH regenerating system, 1 mM UDPGA and 0.1 mM PAPS at 37°C for 0, 5, 15 and 60 minutes at a final volume of 100 μL. The incubation was stopped by precipitation of S9 enzymes with 2 volumes of cold acetonitrile containing internal standard. Concentration of the remaining test compound at the different time points was analyzed by LC-MS/MS and used to determine half-life (t1/2).

We go through four compounds from PMC4521925, “17β-Hydroxysteroid Dehydrogenase Type 2 Inhibition: Discovery of Selective and Metabolically Stable Compounds Inhibiting Both the Human Enzyme and Its Murine Ortholog” (PLoS ONE, 2015).

Sequence of ERβ (Q92731 whole entry): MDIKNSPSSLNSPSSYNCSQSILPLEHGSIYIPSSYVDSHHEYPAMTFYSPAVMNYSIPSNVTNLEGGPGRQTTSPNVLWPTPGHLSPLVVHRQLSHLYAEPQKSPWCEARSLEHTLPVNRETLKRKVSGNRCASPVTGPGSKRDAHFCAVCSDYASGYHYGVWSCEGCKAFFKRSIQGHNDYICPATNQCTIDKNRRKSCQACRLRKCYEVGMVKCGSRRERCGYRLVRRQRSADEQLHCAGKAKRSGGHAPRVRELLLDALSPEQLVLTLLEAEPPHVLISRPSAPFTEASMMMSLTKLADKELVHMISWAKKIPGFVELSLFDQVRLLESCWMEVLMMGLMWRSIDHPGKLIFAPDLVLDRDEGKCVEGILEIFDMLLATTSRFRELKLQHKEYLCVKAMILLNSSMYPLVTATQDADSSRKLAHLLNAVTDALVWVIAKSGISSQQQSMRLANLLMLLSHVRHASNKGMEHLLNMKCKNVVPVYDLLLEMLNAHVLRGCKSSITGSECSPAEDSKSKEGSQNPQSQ

A word on the IC50: it is the concentration that gives 50% inhibition. A lower IC50 goes with higher potency. As to `Cc1cccc(N(C)C(=O)c2ccc(-c3cccc(C)c3F)cc2)c1` [Compound 21a, 2'-Fluoro-N,3'-dimethyl-N-(m-tolyl)-[1,1'-biphenyl]-4-carboxamide], at ERβ, the “displacement of E2 from ERβ” value is recorded as no more than 20%. The inhibition at 1 µM on m17β-HSD2 (read-out: % inh. at 1 μM m17β-HSD2) is 56%. At h17β-HSD2 [1], 330 nM corresponded to half-maximal inhibition (IC50) and the “s.f. (selectivity factor) = IC50(17β-HSD1)/IC50(17β-HSD2)” value was 11.
Turning to `Cc1cccc(-c2ccc(C(=O)N(C)Cc3cccc(O)c3)cc2)c1F` [Compound 25, 2'-Fluoro-N-(3-hydroxybenzyl)-N,3'-dimethyl-[1,1'-biphenyl]-4-carboxamide], the “displacement of E2 from ERβ” value at ERβ is recorded as no more than 20%. For the same compound, the IC50 at m17β-HSD2 was determined as 190 nM. On h17β-HSD2 [2], the inhibition at 0.25 µM worked out at 67% and the inhibition at 1.25 µM was roughly 90%. Moreover, in data set [3], the “Inhibitor t1/2” value was “short half-life” and the half-life at 1 μM was found to be 0.1 h. Further, at h17β-HSD2 [1], half-maximal inhibition (IC50) required 260 nM and the “s.f. (selectivity factor) = IC50(17β-HSD1)/IC50(17β-HSD2)” value amounted to 118.
As to `COc1cccc(N(C)C(=O)c2ccc(-c3ccc(C)c(C)c3)cc2)c1` [Compound 17a, N-(3-methoxyphenyl)-N,3',4'-trimethyl-[1,1'-biphenyl]-4-carboxamide], the “displacement of E2 from ERβ” value on ERβ is no more than 20%. Inhibition on m17β-HSD2 was half-maximal at 140 nM (IC50). Further, on h17β-HSD2 [2], the inhibition at 0.25 µM amounted to 66% and the inhibition at 1.25 µM is roughly 90%. For the same compound, the half-life at 1 μM in data set [3] was 1.78 h. Besides, at h17β-HSD2 [1], the midpoint of inhibition, the IC50, lay at 300 nM and the “s.f. (selectivity factor) = IC50(17β-HSD1)/IC50(17β-HSD2)” value is reported as 44.
On to `COc1cccc(N(C)C(=O)c2ccc(-c3cccc(C)c3)cc2)c1` [Compound 6a, N-(3-methoxyphenyl)-N,3'-dimethyl-[1,1'-biphenyl]-4-carboxamide], for which the “displacement of E2 from ERβ” value at ERβ is given as no more than 20%. Also, at m17β-HSD2, the IC50 came to 260 nM. Moreover, on h17β-HSD2 [2], the inhibition at 0.25 µM came to 60% and the inhibition at 1.25 µM was roughly 90%. In addition, the half-life at 1 μM in data set [3] worked out at 1.77 h. At h17β-HSD2 [1], the IC50 was 260 nM and the “s.f. (selectivity factor) = IC50(17β-HSD1)/IC50(17β-HSD2)” value is 25.
